In patent EP0483271B1, “PEPTIDES CONTAINING DIAMINO-GLYCOLS AS TRANSITION-STATE MIMICS” (THE UPJOHN COMPANY, priority 1989, dated 1993):
Structures can show the parent of a compound that is named as a salt.

Tested on: renin
Assay: renin inhibitory activity, in vitro test (as described in US-A-4880781 and EP-A-0 173 481, pages 103-105)
Assay type: biochemical
Settings: at 10⁻⁸M; printed under the heading IC₅₀(M)
Description: In the examples below, the renin inhibitory activity of the compounds of the present invention (IC₅₀'s) are determined using the in vitro test described in US-A-4880 781 (U.S. patent application, Serial No. 07/147,073, filed 20 January 1988), and in EP-A-0 173 481, published 5 March 1986, pages 103-105, which are hereby incorporarted by reference.

## COc1ccc(C[C@H](NC(=O)[C@@H]2CCCN2C(=O)CC[C@H](N)C(=O)O)C(=O)N[C@@H](Cc2c[nH]cn2)C(=O)N[C@@H](CC2CCCCC2)[C@@H](O)[C@@H](O)CC(C)(C)N)cc1 [Example 7, L-Arabino-heptitol6-amino-1,2,5,6,7-pentadeoxy-1-cyclohexyl-2-[[N-[N-(1-L-γ-glutamyl-L-prolyl)-O-methyl-L-tyrosyl]-L-histidyl]-amino]-6-methyl-, tris(trisluoroacetate) salt]
  inhibition: 34%
